Test results as given in patent publication US20260231994A1, “TASTE-ENHANCING COMPOSITION, METHOD FOR PRODUCING SAME, FOOD PRODUCT, AND METHOD FOR ENHANCING TASTE OF FOOD PRODUCT” (HOUSE FOODS GROUP INC., priority 2023, published 2026).

What was measured:
Format in all cases: in vivo
[1] = Experiment 6 sensory evaluation of cyclic dipeptides, “top sharp saltiness”
Description: (§1) An aqueous solution in which the concentration of each of the cyclic dipeptides shown in the table described below is set to be the same as its concentration in the heat-treated coriander prepared in 1.1. described above, as estimated from the ratio of the peak area of the cyclic dipeptides to the peak area of the internal standard (47 μg/g of L-lysine-^13C6 monohydrochloride) (hereinafter referred to as “heat-treated coriander equivalent aqueous solution”) was prepared. An aqueous solution in which the concentration of each of the cyclic dipeptides is set to be the same as its concentration in the heat-treated paprika of Example 203 prepared in 2.1 described above (hereinafter referred to as “heat-treated paprika equivalent aqueous solution”) was also prepared. Cyclic dipeptides prepared by the applicant were used in this experiment. As a cyclic dipeptide comprising Leu/Ile, a mixture comprising equal parts of cyclic dipeptide comprising Leu and cyclic dipeptide comprising Ile was used.
(§2) Common and reduced-sodium curry rouxes were prepared according to the procedures described in (1) and (2) of 1.3. described above.
(§3) Two dispersions of 44 g of the aforesaid reduced-sodium curry roux dispersed in 300 g of hot water were prepared. To one of them was added the heat-treated coriander equivalent solution or heat-treated paprika equivalent aqueous solution of the individual cyclic dipeptides shown in the table described below so as to be in the final concentration of 0.5% (w/w) or 1.0% (w/w), respectively.
(§4) Forty-four grams of the aforesaid common curry roux was dispersed in 300 g of hot water.
(§5) The dispersion of reduced-sodium curry roux dispersed in hot water and the dispersion of common curry roux dispersed in hot water were used as comparative controls, and the strength of the flavor was evaluated by three evaluators on the basis of the following evaluation criteria from the viewpoint of “top sharp saltiness”, “middle fullness (enhanced thickness) and “boosting of last flavor (aftertaste).”
(§6) The average of the evaluated scores was defined as “F” when it was 1.0 or lower, “C” when it was 1.1 or higher and 1.9 or lower, “B” when it was 2.0 or higher and 2.5 or lower, “A” when it was 2.6 or higher and 2.9 or lower, and “AA” when it was 3.0 or higher.
(§7) In the table described below, “ID” refers to the compound ID described above. The items of “coriander 0.5%” and “coriander 1.0%” refer to the addition of the aforesaid heat-treated coriander equivalent aqueous solution of cyclic dipeptide so that the final concentrations may be 0.5% (w/w) and 1.0% (w/w), respectively. The items of “paprika 0.5%” and “paprika 1.0%” refer to the addition of the aforesaid heat-treated paprika equivalent aqueous solution of cyclic dipeptide so that the final concentration may be 0.5% (w/w) and 1.0% (w/w), respectively.

[2] = Experiment 6 sensory evaluation of cyclic dipeptides, “boosting of last flavor (aftertaste)”
Description: as §1, §2, §3, §4, §5, §6, §7

[3] = Experiment 6 sensory evaluation of cyclic dipeptides, “middle fullness (enhanced thickness)”
Description: as §1, §2, §3, §4, §5, §6, §7

[4] = Additive amount paprika 0.5% (heat-treated paprika equivalent aqueous solution, final 0.5% (w/w)), reduced-sodium curry roux
[5] = Additive amount paprika 0.5%, reduced-sodium curry roux
[6] = heat-treated paprika equivalent aqueous solution of cyclic dipeptide, final 1.0% (w/w) in reduced-sodium curry roux dispersion
[7] = heat-treated paprika equivalent aqueous solution of cyclic dipeptide, final 1.0% (w/w) in reduced-sodium curry roux dispersion, 3 evaluators
[8] = Additive amount coriander 0.5% (heat-treated coriander equivalent aqueous solution, final 0.5% (w/w)), reduced-sodium curry roux
[9] = Additive amount coriander 0.5%, reduced-sodium curry roux
[10] = heat-treated coriander equivalent aqueous solution of cyclic dipeptide, final 1.0% (w/w) in reduced-sodium curry roux dispersion
[11] = heat-treated coriander equivalent aqueous solution of cyclic dipeptide, final 1.0% (w/w) in reduced-sodium curry roux dispersion, 3 evaluators

| Substance | Top sharp saltiness Average [1, 8] [points] | Top sharp saltiness Evaluation [1, 9] | Top sharp saltiness Evaluation [1, 10] | Top sharp saltiness Average [1, 11] [points] | Bosting of last flavor Average [2, 9] [points] | Bosting of last flavor Evaluation [2, 9] | Bosting of last flavor Evaluation [2, 10] | Bosting of last flavor Average [2, 11] [points] | Middle fullness Average [3, 9] [points] | Middle fullness Evaluation [3, 9] | Middle fullness Evaluation [3, 10] | Middle fullness Average [3, 11] [points] | other results |
| --- | --- | --- | --- | --- | --- | --- | --- | --- | --- | --- | --- | --- | --- |
| cyclic (Pro-Asp) [Coriander ID 16] | – | – | – | – | – | – | – | – | – | – | – | – | Top sharp saltiness Average [1, 4]: 1.8 points; Top sharp saltiness Evaluation [1, 5]: C (“C” when it was 1.1 or higher and 1.9 or lower); Top sharp saltiness Evaluation [1, 6]: C (“C” when it was 1.1 or higher and 1.9 or lower); Top sharp saltiness Average [1, 7]: 1.8 points; Bosting of last flavor Average [2, 5]: 2.2 points; Bosting of last flavor Evaluation [2, 5]: B (“B” when it was 2.0 or higher and 2.5 or lower); Bosting of last flavor Evaluation [2, 6]: C (“C” when it was 1.1 or higher and 1.9 or lower); Bosting of last flavor Average [2, 7]: 1.8 points; Middle fullness Average [3, 5]: 2.0 points; Middle fullness Evaluation [3, 5]: B (“B” when it was 2.0 or higher and 2.5 or lower); Middle fullness Evaluation [3, 6]: B (“B” when it was 2.0 or higher and 2.5 or lower); Middle fullness Average [3, 7]: 2.0 points |
| cyclic (Tyr-His) [Coriander ID 50] | 2.3 | B (“B” when it was 2.0 or higher and 2.5 or lower) | AA (“AA” when it was 3.0 or higher) | 3.3 | 2.8 | A (“A” when it was 2.6 or higher and 2.9 or lower) | AA (“AA” when it was 3.0 or higher) | 3.0 | 2.5 | B (“B” when it was 2.0 or higher and 2.5 or lower) | AA (“AA” when it was 3.0 or higher) | 3.3 | – |
| cyclic (Val-Phe) [Coriander ID 38] | – | – | – | – | – | – | – | – | – | – | – | – | Top sharp saltiness Average [1, 4]: 2.8 points; Top sharp saltiness Evaluation [1, 5]: A (“A” when it was 2.6 or higher and 2.9 or lower); Top sharp saltiness Evaluation [1, 6]: A (“A” when it was 2.6 or higher and 2.9 or lower); Top sharp saltiness Average [1, 7]: 2.8 points; Bosting of last flavor Average [2, 5]: 3.3 points; Bosting of last flavor Evaluation [2, 5]: AA (“AA” when it was 3.0 or higher); Bosting of last flavor Evaluation [2, 6]: AA (“AA” when it was 3.0 or higher); Bosting of last flavor Average [2, 7]: 3.2 points; Middle fullness Average [3, 5]: 3.2 points; Middle fullness Evaluation [3, 5]: AA (“AA” when it was 3.0 or higher); Middle fullness Evaluation [3, 6]: A (“A” when it was 2.6 or higher and 2.9 or lower); Middle fullness Average [3, 7]: 2.8 points |
| cyclic (Gly-Tyr) [Coriander ID 44] | 1.7 | C (“C” when it was 1.1 or higher and 1.9 or lower) | B (“B” when it was 2.0 or higher and 2.5 or lower) | 2.2 | 2.3 | B (“B” when it was 2.0 or higher and 2.5 or lower) | A (“A” when it was 2.6 or higher and 2.9 or lower) | 2.8 | 2.0 | B (“B” when it was 2.0 or higher and 2.5 or lower) | B (“B” when it was 2.0 or higher and 2.5 or lower) | 2.2 | – |
| cyclic (Pro-Pro) [Coriander ID 18] | 2.2 | B (“B” when it was 2.0 or higher and 2.5 or lower) | B (“B” when it was 2.0 or higher and 2.5 or lower) | 2.3 | 2.3 | B (“B” when it was 2.0 or higher and 2.5 or lower) | B (“B” when it was 2.0 or higher and 2.5 or lower) | 2.5 | 2.5 | B (“B” when it was 2.0 or higher and 2.5 or lower) | A (“A” when it was 2.6 or higher and 2.9 or lower) | 2.7 | – |
| cyclic (Gly-Arg) [Coriander ID 7] | 2.5 | B (“B” when it was 2.0 or higher and 2.5 or lower) | C (“C” when it was 1.1 or higher and 1.9 or lower) | 1.3 | 3.0 | AA (“AA” when it was 3.0 or higher) | C (“C” when it was 1.1 or higher and 1.9 or lower) | 1.5 | 3.2 | AA (“AA” when it was 3.0 or higher) | C (“C” when it was 1.1 or higher and 1.9 or lower) | 1.7 | – |
| cyclic (Phe-Phe) [Coriander ID 43] | 2.3 | B (“B” when it was 2.0 or higher and 2.5 or lower) | A (“A” when it was 2.6 or higher and 2.9 or lower) | 2.8 | 3.2 | AA (“AA” when it was 3.0 or higher) | A (“A” when it was 2.6 or higher and 2.9 or lower) | 2.7 | 2.3 | B (“B” when it was 2.0 or higher and 2.5 or lower) | A (“A” when it was 2.6 or higher and 2.9 or lower) | 2.7 | – |
| cyclic (Glu-Gly) [Coriander ID 9] | 2.2 | B (“B” when it was 2.0 or higher and 2.5 or lower) | B (“B” when it was 2.0 or higher and 2.5 or lower) | 2.0 | 2.8 | A (“A” when it was 2.6 or higher and 2.9 or lower) | B (“B” when it was 2.0 or higher and 2.5 or lower) | 2.5 | 2.8 | A (“A” when it was 2.6 or higher and 2.9 or lower) | AA (“AA” when it was 3.0 or higher) | 3.0 | – |
| cyclic (Ala-Arg) [Coriander ID 11] | 2.0 | B (“B” when it was 2.0 or higher and 2.5 or lower) | B (“B” when it was 2.0 or higher and 2.5 or lower) | 2.2 | 1.8 | B (“B” when it was 2.0 or higher and 2.5 or lower) | A (“A” when it was 2.6 or higher and 2.9 or lower) | 2.7 | 1.8 | C (“C” when it was 1.1 or higher and 1.9 or lower) | B (“B” when it was 2.0 or higher and 2.5 or lower) | 2.7 | – |
